Measured values taken from ChEMBL document CHEMBL4229455, “Synthesis and anticancer activity of novel bisindolylhydroxymaleimide derivatives with potent GSK-3 kinase inhibition” (Bioorg Med Chem, 2018).

Assays:
Format in all cases: functional
HOP-92 [1] = assay: Cytotoxicity against human HOP92 cells assessed as cell growth at 1 uM after 48 hrs by SRB assay relative to control; details: HOP-92, 48 h, read-out: Activity
HOP-92 [2] = assay: Cytotoxicity against human HOP92 cells assessed as cell growth at 0.01 uM after 48 hrs by SRB assay relative to control; details: HOP-92, 48 h, read-out: Activity
SK-MEL-2 [3] = assay: Cytotoxicity against human SK-MEL-2 cells assessed as cell growth at 1 uM after 48 hrs by SRB assay relative to control; details: SK-MEL-2, 48 h, read-out: Activity
SNB-19 = assay: Cytotoxicity against human SNB19 cells assessed as cell growth at 1 uM after 48 hrs by SRB assay relative to control; details: SNB-19, 48 h, read-out: Activity
MDA-MB-468 [4] = assay: Cytotoxicity against human MDA-MB-468 cells after 48 hrs by SRB assay; details: MDA-MB-468, 48 h
HCC 2998 = assay: Cytotoxicity against human HCC2998 cells assessed as cell growth at 0.01 uM after 48 hrs by SRB assay relative to control; details: HCC 2998, 48 h, read-out: Activity
MDA-MB-231 = assay: Cytotoxicity against human MDA-MB-231 cells after 48 hrs by SRB assay; details: MDA-MB-231, 48 h
IGROV-1 [5] = assay: Cytotoxicity against human IGROV1 cells assessed as cell growth at 100 uM after 48 hrs by SRB assay relative to control; details: IGROV-1, 48 h, read-out: Activity
MCF7 [6] = assay: Cytotoxicity against human MCF7 cells after 48 hrs by SRB assay; details: MCF7, 48 h
NCI/ADR-RES [7] = assay: Cytotoxicity against human NCI-ADR-RES cells assessed as cell growth at 100 uM after 48 hrs by SRB assay relative to control; details: read-out: Activity
HOP-62 = assay: Cytotoxicity against human HOP62 cells assessed as cell growth at 0.01 uM after 48 hrs by SRB assay relative to control; details: HOP-62, 48 h, read-out: Activity
MCF7 [8] = assay: Cytotoxicity against human MCF7 cells assessed as cell growth at 0.1 uM after 48 hrs by SRB assay relative to control; details: MCF7, 48 h, read-out: Activity
M14 = assay: Cytotoxicity against human M14 cells assessed as cell growth at 0.01 uM after 48 hrs by SRB assay relative to control; details: M14, 48 h, read-out: Activity
NCI-H23 = assay: Cytotoxicity against human NCI-H23 cells after 48 hrs by SRB assay; details: NCI-H23, 48 h
CCRF-CEM = assay: Cytotoxicity against human CCRF-CEM cells assessed as cell growth at 0.01 uM after 48 hrs by SRB assay relative to control; details: read-out: Activity
NCI/ADR-RES [9] = assay: Cytotoxicity against human NCI-ADR-RES cells assessed as cell growth at 1 uM after 48 hrs by SRB assay relative to control; details: read-out: Activity
K562 = assay: Cytotoxicity against human K562 cells assessed as cell growth at 0.01 uM after 48 hrs by SRB assay relative to control; details: K562, 48 h, read-out: Activity
MCF7 [10] = assay: Cytotoxicity against human MCF7 cells assessed as cell growth at 1 uM after 48 hrs by SRB assay relative to control; details: MCF7, 48 h, read-out: Activity
SR = assay: Cytotoxicity against human SR cells assessed as cell growth at 0.1 uM after 48 hrs by SRB assay relative to control; details: read-out: Activity
SK-MEL-2 [11] = assay: Cytotoxicity against human SK-MEL-2 cells assessed as cell growth at 100 uM after 48 hrs by SRB assay relative to control; details: SK-MEL-2, 48 h, read-out: Activity
T47D = assay: Cytotoxicity against human T47D cells assessed as cell growth at 100 uM after 48 hrs by SRB assay relative to control; details: read-out: Activity
MDA-MB-468 [12] = assay: Cytotoxicity against human MDA-MB-468 cells assessed as cell growth at 0.01 uM after 48 hrs by SRB assay relative to control; details: MDA-MB-468, 48 h, read-out: Activity
A549 [13] = assay: Cytotoxicity against human A549 cells assessed as cell growth at 1 uM after 48 hrs by SRB assay relative to control; details: A549, 48 h, read-out: Activity
UACC-62 = assay: Cytotoxicity against human UACC62 cells assessed as cell growth at 100 uM after 48 hrs by SRB assay relative to control; details: UACC-62, 48 h, read-out: Activity
SK-MEL-28 = assay: Cytotoxicity against human SK-MEL-28 cells assessed as cell growth at 0.1 uM after 48 hrs by SRB assay relative to control; details: SK-MEL-28, 48 h, read-out: Activity
SW-620 = assay: Cytotoxicity against human SW620 cells assessed as cell growth at 0.01 uM after 48 hrs by SRB assay relative to control; details: SW-620, 48 h, read-out: Activity
OVCAR-3 = assay: Cytotoxicity against human OVCAR3 cells assessed as cell growth at 0.01 uM after 48 hrs by SRB assay relative to control; details: OVCAR-3, 48 h, read-out: Activity
NCI-H522 = assay: Cytotoxicity against human NCI-H522 cells assessed as cell growth at 0.1 uM after 48 hrs by SRB assay relative to control; details: NCI-H522, 48 h, read-out: Activity
TK-10 [14] = assay: Cytotoxicity against human TK10 cells assessed as cell growth at 0.01 uM after 48 hrs by SRB assay relative to control; details: TK-10, 48 h, read-out: Activity
IGROV-1 [15] = assay: Cytotoxicity against human IGROV1 cells after 48 hrs by SRB assay; details: IGROV-1, 48 h
A549 [16] = assay: Cytotoxicity against human A549 cells after 48 hrs by SRB assay; details: A549, 48 h; for CC50: read-out: LC50 (the source's name)
OVCAR-8 = assay: Cytotoxicity against human OVCAR8 cells assessed as cell growth at 1 uM after 48 hrs by SRB assay relative to control; details: OVCAR-8, 48 h, read-out: Activity
UACC-257 = assay: Cytotoxicity against human UACC257 cells assessed as cell growth at 100 uM after 48 hrs by SRB assay relative to control; details: UACC-257, 48 h, read-out: Activity
TK-10 [17] = assay: Cytotoxicity against human TK10 cells assessed as cell growth at 100 uM after 48 hrs by SRB assay relative to control; details: TK-10, 48 h, read-out: Activity
NCI/ADR-RES [18] = assay: Cytotoxicity against human NCI-ADR-RES cells after 48 hrs by SRB assay; details: for CC50: read-out: LC50 (the source's name)
A549 [19] = assay: Cytotoxicity against human A549 cells assessed as cell growth at 0.01 uM after 48 hrs by SRB assay relative to control; details: A549, 48 h, read-out: Activity
SN12C = assay: Cytotoxicity against human SN12C cells assessed as cell growth at 0.1 uM after 48 hrs by SRB assay relative to control; details: read-out: Activity

In the case of N#CCCCCCn1cc(C2=C(c3cn(CCCCCC#N)c4ccccc34)C(=O)N(O)C2=O)c2ccccc21, the growth at 1 µM (HOP-92 [1]) is reported as 109%, the growth at 0.01 µM (HOP-92 [2]) is reported as 97% and the growth at 1 µM (SK-MEL-2 [3]) is reported as 97%. The growth at 1 µM (SNB-19) was 91%, the GI50 (MDA-MB-468 [4]) was 3.47 µM and the LC50 (MDA-MB-468 [4]) was greater than 100 µM. For the same molecule, the TGI (MDA-MB-468 [4]) was 13.9 µM, the growth at 0.01 µM (HCC 2998) was 98% and the GI50 (MDA-MB-231) was 4.26 µM. For the same molecule, the LC50 (50% lethal concentration) (MDA-MB-231) was greater than 100 µM, the TGI (MDA-MB-231) was 64.7 µM and the growth at 100 µM (IGROV-1 [5]) was -5%. For the same molecule, the GI50 (MCF7 [6]) was 3.57 µM, the LC50 (concentration killing 50% of cells) (MCF7 [6]) was greater than 100 µM and the TGI (MCF7 [6]) was 30.7 µM. For the same molecule, the growth at 100 µM (NCI/ADR-RES [7]) was 24%, the growth at 0.01 µM (HOP-62) was 94% and the growth at 0.1 µM (MCF7 [8]) was 85%. For the same molecule, the growth at 0.01 µM (M14) was 97%, the GI50 (NCI-H23) was 6.09 µM and the LC50 (concentration killing 50% of cells) (NCI-H23) was greater than 100 µM. It also gave a TGI (NCI-H23) greater than 100 µM, a growth at 0.01 µM (CCRF-CEM) of 91% and a growth at 1 µM (NCI/ADR-RES [9]) of 102%. For the same molecule, the growth at 0.01 µM (K562) was 85%, the growth at 1 µM (MCF7 [10]) was 95% and the growth at 0.1 µM (SR) was 100%. For the same molecule, the growth at 100 µM (SK-MEL-2 [11]) was -38%, the growth at 100 µM (T47D) was -7% and the growth at 0.01 µM (MDA-MB-468 [12]) was 106%. The growth at 1 µM (A549 [13]) was 100%, the growth at 100 µM (UACC-62) was -55% and the growth at 0.1 µM (SK-MEL-28) was 102%. The growth at 0.01 µM (SW-620) was 100%, the growth at 0.01 µM (OVCAR-3) was 99% and the growth at 0.1 µM (NCI-H522) was 86%. It also gave a growth at 0.01 µM (TK-10 [14]) of 93%, a GI50 (IGROV-1 [15]) of 5.08 µM and an LC50 (concentration killing 50% of cells) (IGROV-1 [15]) greater than 100 µM. For the same molecule, the TGI (IGROV-1 [15]) was 70.8 µM, the GI50 (A549 [16]) was 10.4 µM and the TGI (A549 [16]) was greater than 100 µM. It also gave a CC50 (A549 [16]) greater than 100 µM, a growth at 1 µM (OVCAR-8) of 95% and a growth at 100 µM (UACC-257) of -19%. It also gave a growth at 100 µM (TK-10 [17]) of 12%, a GI50 (NCI/ADR-RES [18]) of 20.4 µM and a TGI (NCI/ADR-RES [18]) greater than 100 µM. The CC50 (NCI/ADR-RES [18]) was greater than 100 µM, the growth at 0.01 µM (A549 [19]) was 100% and the growth at 0.1 µM (SN12C) was 94%.

In the case of Cn1cc(C2=C(c3cn(C)c4ncccc34)C(=O)NC2=O)c2ccccc21, the growth at 1 µM (HOP-92 [1]) is reported as 76%, the growth at 0.01 µM (HOP-92 [2]) is reported as 90% and the growth at 1 µM (SK-MEL-2 [3]) is reported as 111%. It also gave a growth at 1 µM (SNB-19) of 91%, a GI50 (MDA-MB-468 [4]) of 2.22 µM and a TGI (MDA-MB-468 [4]) of 9.46 µM. For the same molecule, the growth at 0.01 µM (HCC 2998) was 103%, the GI50 (MDA-MB-231) was 4.67 µM and the TGI (MDA-MB-231) was 38.8 µM. For the same molecule, the growth at 100 µM (IGROV-1 [5]) was -10%, the GI50 (MCF7 [6]) was 2.4 µM and the TGI (MCF7 [6]) was 29.5 µM. The growth at 100 µM (NCI/ADR-RES [7]) was -19%, the growth at 0.01 µM (HOP-62) was 110% and the growth at 0.1 µM (MCF7 [8]) was 87%. It also gave a growth at 0.01 µM (M14) of 105%, a GI50 (NCI-H23) of 4.18 µM and a TGI (NCI-H23) of 26.7 µM. It also gave a growth at 0.01 µM (CCRF-CEM) of 98%, a growth at 1 µM (NCI/ADR-RES [9]) of 91% and a growth at 0.01 µM (K562) of 108%. It also gave a growth at 1 µM (MCF7 [10]) of 73%, a growth at 0.1 µM (SR) of 88% and a growth at 100 µM (SK-MEL-2 [11]) of -55%. For the same molecule, the growth at 100 µM (T47D) was -11%, the growth at 0.01 µM (MDA-MB-468 [12]) was 101% and the growth at 1 µM (A549 [13]) was 84%. The growth at 100 µM (UACC-62) was -51%, the growth at 0.1 µM (SK-MEL-28) was 95% and the growth at 0.01 µM (SW-620) was 96%. It also gave a growth at 0.01 µM (OVCAR-3) of 107%, a growth at 0.1 µM (NCI-H522) of 98% and a growth at 0.01 µM (TK-10 [14]) of 100%. For the same molecule, the GI50 (IGROV-1 [15]) was 4.1 µM, the TGI (IGROV-1 [15]) was 27.5 µM and the GI50 (A549 [16]) was 3.49 µM. The TGI (A549 [16]) was 33.2 µM, the CC50 (A549 [16]) was greater than 100 µM and the growth at 1 µM (OVCAR-8) was 95%. The growth at 100 µM (UACC-257) was -12%, the growth at 100 µM (TK-10 [17]) was -18% and the GI50 (NCI/ADR-RES [18]) was 5.19 µM. It also gave a TGI (NCI/ADR-RES [18]) of 44 µM, a CC50 (NCI/ADR-RES [18]) greater than 100 µM and a growth at 0.01 µM (A549 [19]) of 99%. For the same molecule, the growth at 0.1 µM (SN12C) was 87%.
